Values quoted from earlier work, collected in patent US20190269662A1, “SOLID COMPOSITIONS OF ACTIVES, PROCESSES FOR PREPARING SAME AND USES OF SUCH SOLID COMPOSITIONS” (The University of Liverpool, priority 2018, published 2019).

Conditions: background statement; cited from earlier work

Structure (SMILES): Cc1nnc(C(C)C)n1[C@@H]1C[C@H]2CC[C@@H](C1)N2CC[C@H](NC(=O)C1CCC(F)(F)CC1)c1ccccc1 [maraviroc]
- oral bioavailability: approximately 33%
